The results in this text go back to patent US9138421B2, “Platinum compounds for treating cell proliferative diseases, preparation method and use thereof” (priority 2011, dated 2015).

For one data set, the system named is normal mice. The data set can be described thus: Acute toxic effect of platinum complex on normal mice (LD50). As to conditions: single intravenous administration in 5% glucose, 14 days observation, Bliss method. The data set is classed as in vivo, Kunming mice. The procedure:
(§1) Test 1: Acute Toxic Effect of Platinum Complex on Normal Mice
(§2) Embodiment platinum compound was dissolved with 5% glucose solution. […] Mortality and toxicity were observed after administration.

The next data set concerns lung cancer H292. The data set can be described thus: MTT cytotoxicity, lung cancer H292. Format: cell-based. As to conditions: n = 6. The procedure:
(§3) The toxic action of Embodiment platinum containing compounds was observed on tumor cells by MTT colorimetric method. Several kinds of tumor cells in exponential growth phase were prepared into single cell suspension, inoculated on 96 pore plat at the density of 4×10^4/hole, cultivated for 24 hours to enable to adhere to wall with 1640 culture medium containing 10% fetal calf serum (complete medium) at 37° C.; the final culture volume was 100 μl. Cell morphology was observed after culture for 24 hours.

The subject of another data set is testis cell ST. The data set can be described thus: MTT cytotoxicity, testis cell ST. Format: cell-based. As to conditions: n = 6. The procedure: as §3
The next data set concerns gastric cancer MGC803. The data set can be described thus: MTT cytotoxicity, gastric cancer MGC803. Format: cell-based. The note with it: n = 6. As to the method: as §3
For a further data set, the system named is esophagus cancer ECA109. The data set can be described thus: MTT cytotoxicity, esophagus cancer ECA109. The data set is classed as cell-based. The note with it: n = 6. As to the method:
as §3

The subject of data set [1] is breast cancer MCF-7 tumor cell line. The data set can be described thus: In vivo antitumor activity, breast cancer MCF-7 in nude mice. The note with it: MCF-7, 15 mg/kg, every 2 days, 4 times, end 30 days after inoculation.
A further data set deals with colon cancer SW480. Put plainly: MTT cytotoxicity, colon cancer SW480. Format: cell-based. As to conditions: n = 6. The procedure: as §3
In data set [2] the test system is lung cancer H292 cell line. The data set can be described thus: In vivo antitumor activity, lung cancer H292 in nude mice. The note with it: H292, 15 mg/kg, every 2 days, 4 times, end 30 days after inoculation.
Data set [3] in a line: Acute toxic effect of platinum complex on normal mice (LD50). As to conditions: both sexes, Kunming, mouse, in vivo; single intravenous administration in 5% glucose, 14 days observation, Bliss method. Format: in vivo, Kunming mice. As to the method:
as §1, §2

Data set [4] has as its system Pulmonary epithelial cell BEAS-2B. Put plainly: MTT cytotoxicity, pulmonary epithelial cell BEAS-2B. The data set is classed as cell-based. The note with it: n = 6. The procedure:
as §3

A further data set concerns lung cancer Lewis. Put plainly: MTT cytotoxicity, lung cancer Lewis. As to conditions: n = 6. The data set is classed as cell-based. The procedure:
as §3

As for `CCN(CC)CCC1C(=O)[O][Pt]2([NH]CCC[NH]2)[O]C1=O.O=P(O)(O)O` [compound 21, [2-(2-diethylamine ethyl)-malonato].[cis-1,3-propyldiamine] platinum (II) phosphate], the LD50 value in the data set with normal mice came to 0.716 mmol/kg. For the same compound, the half-maximal inhibitory concentration (IC50) – broadly, the concentration at which inhibition is half-maximal – in the data set with lung cancer H292 was determined as 205 µM; in the data set on testis cell ST, 16 µM; in the data set with gastric cancer MGC803 it was 216 µM; in the data set on esophagus cancer ECA109, 174 µM. For the same compound, the “tumor inhibition rate (%)” value in [1] is given as 40.3 ± 9.65%. For the same compound, in “Solubility in water” (in water), the solubility (commonly how much of the substance goes into solution per volume) is 231 mg/mL.
In the data set with normal mice, “[2-(2-dimethylamine ethyl)-malonato].[cis-1,2-ethylenediamine] platinum (II) tosilate [compound 20]” had an LD50 value of 0.753 mmol/kg. Moreover, the IC50 in the data set on lung cancer H292 amounted to 351 µM; in the data set with testis cell ST it was 12 µM; in the data set on gastric cancer MGC803, 149 µM; with esophagus cancer ECA109, 193 µM. The “tumor inhibition rate (%)” value in [1] stood at 54.52 ± 10.25 %.
The compound `CCCN(CCC)CCC1C(=O)[O][Pt]2([NH]C3CCCCC3[NH]2)[O]C1=O.O=P(O)(O)O` (stereo not drawn) [compound 15, [2-(2-di-n-propylamine ethyl)-malonato].[cis-(1,2-trans-cyclohexamethylenediamine)]platinum (II) phosphate] displayed an LD50 value in the data set with normal mice of 0.469 mmol/kg. In addition, the IC50 in the data set with lung cancer H292 is 651 µM; in the data set with colon cancer SW480, 92 µM; with testis cell ST, 12 µM; in the data set with gastric cancer MGC803, 149 µM. Further, in [2], the “tumor inhibition rate (%)” value is 59.0 ± 11.02 ^ %.
Regarding “[2-(2-di-n-propylamine ethyl)-malonato].[cis-1,4-butanediamine] platinum (II) phosphate [compound 22]”, the LD50 value in the data set with normal mice is given as 0.882 mmol/kg. Moreover, the IC50 is 102 µM in the data set on lung cancer H292, 302 µM with testis cell ST, 556 µM in the data set on gastric cancer MGC803 and 215 µM with esophagus cancer ECA109. The “tumor inhibition rate (%)” value in data set [1] worked out at 40.9 ± 8.97%.
For the compound `NCCCC1C(=O)[O][Pt]([NH2])([NH2])[O]C1=O` [compound 4, [2-(3-amino propyl)-malonato].[cis-diamine] platinum (II) phosphate], the LD50 (usually the dose at which mortality reaches 50%) at 14 days in [3] was 802 µmol/kg. The solubility in “Solubility in water” (water) turned out to be 176 mg/mL.
In data set [3], `CNCCC1C(=O)[O][Pt]([NH2])([NH2])[O]C1=O` [compound 1, [2-(2-methylamine ethyl)-malonato].[cis-diamino]platinum (II) phosphate] came in with an LD50 at 14 days of 722 µmol/kg. In the data set “Solubility in water” (water), the solubility turned out to be 221 mg/mL.
“[2-(2-diethylamine ethyl)-malonato].[cis-1,2-(1,2-dihydroxymethyl)-ethyldiamine]platinum (II) phosphate [compound 23]” registered an LD50 value in the data set on normal mice of 0.702 mmol/kg. Further, the IC50 came to 84 µM in the data set with lung cancer H292, 147 µM with testis cell ST, 367 µM in the data set on gastric cancer MGC803 and 212 µM with esophagus cancer ECA109. Also, the “tumor inhibition rate (%)” value in [1] came to 44.1 ± 15.12%.
Consider `CCN(CC)CCCC1C(=O)[O][Pt]([NH2])([NH2])[O]C1=O` [compound 6, 2-(3-diethylaminepropyl)-malonic-cis-diamino platinum (II) phosphate], for which the LD50 at 14 days in data set [3] was 749 µmol/kg. Besides, the solubility in the data set “Solubility in water” (water) was determined as 165 mg/mL.
As to `CCN(CC)CCC1C(=O)[O][Pt]2([NH]C3CCCCC3[NH]2)[O]C1=O.O=C(O)CC(O)(CC(=O)O)C(=O)O` (stereo not drawn) [compound 13, [2-(2-diethylamine ethyl)-malonato].[cis-(1,2-trans-cyclohexamethylenediamine)]platinum (II) citrate], the concentration for half-maximal inhibition (IC50) with lung cancer H292 is 316 µM; in data set [4], 145 µM; in the data set on lung cancer Lewis it was 36 µM; with colon cancer SW480, 80 µM. In addition, in data set [2], the “tumor inhibition rate (%)” value is on record as 56.1 ± 9.81 ^ %.
Turning to `CN(C)CCC1C(=O)[O][Pt]2([NH]C3CCCCC3[NH]2)[O]C1=O` (stereo not drawn) [compound 10, [2-(2-dimethylamino ethyl)-malonato].[cis-(1,2-trans-cyclohexanediamine)] platinum (II)], the LD50 value with normal mice turned out to be 0.593 mmol/kg. The IC50 was 54 µM in the data set on lung cancer H292, 220 µM in [4], 143 µM in the data set on lung cancer Lewis and 94 µM in the data set on colon cancer SW480. In addition, the “tumor inhibition rate (%)” value in data set [2] is recorded as 55.3 ± 11.21 ^ %.
`CCN(CC)CCC1C(=O)[O][Pt]([NH2])([NH2])[O]C1=O` [compound 5, [2-(2-diethylamine ethyl)-malonato].[cis-diamine] platinum (II) phosphate] showed an LD50 at 14 days in data set [3] of 853 µmol/kg. Moreover, the solubility in the data set “Solubility in water” (water) is 187 mg/mL.
For `[NH2][Pt]1([NH2])[O]C(=O)C(CCCN2CCCCC2)C(=O)[O]1` [compound 29, [2-(3-(1-piperidyl)-propyl)-malonato].[cis-diamine]platinum (II) phosphate], the median lethal dose (LD50) at 14 days in data set [3] turned out to be 784 µmol/kg. The compound also displayed a solubility in “Solubility in water” (water) of 159 mg/mL.
In turn, `CN(C)CCC1C(=O)[O][Pt]([NH2])([NH2])[O]C1=O` [compound 2, [2-(2-dimethylamine ethyl)-malonato].[cis-diamine] platinum (II) acetate] had an LD50 at 14 days in data set [3] of 791 µmol/kg. In addition, the solubility in “Solubility in water” (water) is 198 mg/mL.
With `CCN(CC)CCCC1C(=O)[O][Pt]2([NH]C3CCC3[NH]2)[O]C1=O.O=C(O)CCC(=O)O` (stereo not drawn) [compound 18, 2-(3-diethylaminepropyl)-malonic.cis-(1,2-trans-aminocyclobutyl) platinum (II) succinate], the 50% inhibitory concentration (IC50) in the data set on lung cancer H292 was 224 µM; with colon cancer SW480, 281 µM; in the data set with testis cell ST, 147 µM; with gastric cancer MGC803 it was 367 µM. The “tumor inhibition rate (%)” value in data set [1] was 45.0 ± 9.87%.
For the compound `CCN(CC)CCCC1C(=O)[O][Pt]2([NH]C3CC3[NH]2)[O]C1=O.O=P(O)(O)O` (stereo not drawn) [compound 19, [2-(3-diethylamine propyl)-malonato].[cis-(1,2-trans-cyclopropyldiamine)]platinum (II) phosphate], in the data set on normal mice, the LD50 value is reported as 0.802 mmol/kg. Moreover, the half-inhibitory concentration (IC50) was 62 µM with lung cancer H292, 251 µM in the data set with testis cell ST, 213 µM with gastric cancer MGC803 and 88 µM with esophagus cancer ECA109. Besides, in data set [1], the “tumor inhibition rate (%)” value stood at 52.6 ± 10.5 %. The solubility in the data set “Solubility in water” (in water) stood at 218 mg/mL.
`[NH2][Pt]1([NH2])[O]C(=O)C(CCCN2CCCC2)C(=O)[O]1` [compound 30, [2-(3-(1-pyrrolidyl)-propyl)-malonato].[cis-diamine] platinum (II) phosphate] came in with a 50% lethal dose (LD50) at 14 days in data set [3] of 802 µmol/kg. The compound also yielded a solubility in “Solubility in water” (water) of 160 mg/mL.
On to `CCN(CC)CCCC1C(=O)[O][Pt]2([NH]C3CCCCC3[NH]2)[O]C1=O.O=P(O)(O)O` (stereo not drawn) [compound 14, [2-(3-diethylamine propyl)-malonato].[cis-(1,2-trans-cyclohexamethylenediamine)]platinum (II) phosphate], for which the LD50 value with normal mice is reported as 0.902 mmol/kg. Besides, the IC50 in the data set with lung cancer H292 came to 161 µM; in the data set on colon cancer SW480, 78 µM; in the data set on testis cell ST, 251 µM; in the data set on gastric cancer MGC803, 213 µM. Further, in data set [2], the “tumor inhibition rate (%)” value amounted to 39.8 ± 8.51 %.
For `CN(C)CCCC1C(=O)[O][Pt]([NH2])([NH2])[O]C1=O` [compound 3, [2-(3-dimethylamine propyl)-malonato].[cis-diamine] platinum (II) phosphate], in [3], the median lethal dose (LD50) at 14 days came out at 824 µmol/kg. In “Solubility in water” (water), this compound yielded a solubility of 164 mg/mL.
In the data set with normal mice, “[2-(2-dimethylamine ethyl)-malonato].[cis-1,3-(2,2-hydroxymethyl)-propane diamine]platinum (II) phosphate [compound 24]” yielded an LD50 value of 0.509 mmol/kg. Further, the IC50 with lung cancer H292 turned out to be 65 µM; in the data set with testis cell ST, 153 µM; in the data set with gastric cancer MGC803, 217 µM; in the data set with esophagus cancer ECA109 it was 125 µM. Besides, the “tumor inhibition rate (%)” value in data set [1] is 44.8 ± 11.31%.
The compound “[2-(3-diethylamine propyl)-malonato].[cis-(1,2-trans-diaminocyclopentane)]platinum (II) phosphate [compound 17]” had an LD50 value in the data set with normal mice of 0.616 mmol/kg. For the same compound, the IC50 in the data set with lung cancer H292 turned out to be 249 µM; in the data set on colon cancer SW480 it was 205 µM; in the data set on testis cell ST, 302 µM; in the data set on gastric cancer MGC803, 556 µM. The “tumor inhibition rate (%)” value in data set [1] is 39.8 ± 12.12%.
On to “[2-(3-dimethylamine propyl)-malonato].[cis-(1,2-trans-cyclohexamethylene diamine)]platinum (II) phosphate [compound 11]”, for which the LD50 value in the data set on normal mice is reported as 0.509 mmol/kg. Also, the IC50 turned out to be 6 µM with lung cancer H292, 168 µM in data set [4], 213 µM in the data set on lung cancer Lewis and 57 µM with colon cancer SW480. Besides, the “tumor inhibition rate (%)” value in data set [2] is 35.9 ± 7.13 %.
Regarding “[2-(3-di-n-propylamine propyl)-malonato].[cis-(1, 2-trans-cyclohexamethylene diamine)]platinum (II) phosphate [compound 16]”, the LD50 value with normal mice is listed as 0.524 mmol/kg. The IC50 in the data set with lung cancer H292 stood at 402 µM; in the data set with colon cancer SW480, 77 µM; in the data set with testis cell ST, 16 µM; with gastric cancer MGC803, 216 µM. Further, the “tumor inhibition rate (%)” value in data set [2] came to 35.2 ± 6.43 %.
